This is an account of results in article PMC6026847, “Synthesis and Evaluation of the First Fluorescent Antagonists of the Human P2Y2 Receptor Based on AR-C118925” (Journal of Medicinal Chemistry, 2018).

Like-named read-outs stand apart in the source and are kept apart here.

For assay [1], the system named is human bronchial epithelial cells. The arrangement: method as in PMID 15231488. Particulars: ex vivo; cited from earlier work.
Assay [2] concerns panel of 37 other receptors. Details: method as in PMID 15231488. As to conditions: 10 μM; cited from earlier work.
The test system of assay [3] is hP2Y2. The arrangement: method as in PMID 28958619. Particulars: cited from earlier work.
Assay [4] deals with T1, hP2Y2R (Homo sapiens, UniProt P41231).
T1 construct: The 1321N1 cells expressing wild-type P2Y2R (P2Y2R-1321N1) were gifted by Dr. Elizabeth Rosethorne; expressed in transfected cells; host or cells: 1321N1 astrocytoma cells (P2Y2R-1321N1), gifted
Briefly: Calcium-mobilization assay in P2Y2-1321N1 cells (antagonism of UTPγS). It is filed as cell-based. As to conditions: for Kb: Gaddum equation.

The target of assay [5] is T2, NLuc-P2Y2R (Homo sapiens, UniProt P41231).
T2 construct: expressed in transfected cells
Briefly: NanoBRET competition binding in NLuc-P2Y2 1321N1 cells. As to conditions: Table 7, competition binding with fluorescent ligand 98, mean ± SEM.

Assay [6] addresses T2, NLuc-P2Y2R. The assay can be described thus: Calcium signal of NLuc-tagged P2Y2 receptors in 1321N1 cells. The format is cell-based. As to conditions: n = 3, read-out: UTPγS EC50 (calcium signal). The protocol:
To create the NLuc-P2Y2R constructs, human P2Y2R DNA (obtained from the Missouri S&T cDNA Resource Center) was amplified by PCR to remove the methionine start signal and cloned into pCR2.1 (linearized vector, Invitrogen). P2Y2R was then subcloned in-frame with the membrane-signal sequence of the 5HT3A receptor and the full-length sequence of nanoluciferase.
P2Y2-1321N1 cells seeded into black-sided 96-well view plates were incubated at 37 °C without CO2 for 45 min in a total volume of 100 μL of a HEPES-buffered saline solution (HBSS; 10 mM HEPES, 10 mM glucose, 145 mM NaCl, 5 mM KCl, 1 mM MgSO4, 2 mM sodium pyruvate, and 1.3 mM CaCl2) containing 2.5 mM probenecid, 2.3 μM Fluo 4AM, 0.023% pluronic acid, 0.5 mM Brilliant Black, 1 U/mL apyrase, and the ligand under investigation or the vehicle. The plates were then loaded onto a plate reader (FLEXstation, Molecular Devices), and the fluorescence was measured (excitation: 485 nm, emission: 525 nm) every 1.52 s for up to 200 s after the addition of UTPγS at 15 s. For the investigation of the BODIPYFL-labeled ligands, Fluo 4AM was replaced with 2.0 μM X-Rhod-1 AM (excitation: 584 nm, emission: 612 nm).

Setting [7] is: Table 7, shift of agonist dose–response curve by a single antagonist concentration, mean ± SEM, read-out: pKb Ca2+ mobilization (converted).

T1 sequence (P41231 whole entry): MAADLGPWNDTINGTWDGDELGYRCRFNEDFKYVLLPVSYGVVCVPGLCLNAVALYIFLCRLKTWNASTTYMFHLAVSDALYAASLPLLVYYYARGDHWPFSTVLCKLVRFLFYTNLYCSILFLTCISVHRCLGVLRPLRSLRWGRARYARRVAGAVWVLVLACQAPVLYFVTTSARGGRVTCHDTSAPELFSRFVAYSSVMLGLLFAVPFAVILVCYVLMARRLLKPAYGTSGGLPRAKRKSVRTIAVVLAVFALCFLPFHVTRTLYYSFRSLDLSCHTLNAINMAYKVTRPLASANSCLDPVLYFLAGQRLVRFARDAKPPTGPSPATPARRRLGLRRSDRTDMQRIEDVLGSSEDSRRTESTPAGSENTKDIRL
T2 sequence (P41231 2-377 limits assumed): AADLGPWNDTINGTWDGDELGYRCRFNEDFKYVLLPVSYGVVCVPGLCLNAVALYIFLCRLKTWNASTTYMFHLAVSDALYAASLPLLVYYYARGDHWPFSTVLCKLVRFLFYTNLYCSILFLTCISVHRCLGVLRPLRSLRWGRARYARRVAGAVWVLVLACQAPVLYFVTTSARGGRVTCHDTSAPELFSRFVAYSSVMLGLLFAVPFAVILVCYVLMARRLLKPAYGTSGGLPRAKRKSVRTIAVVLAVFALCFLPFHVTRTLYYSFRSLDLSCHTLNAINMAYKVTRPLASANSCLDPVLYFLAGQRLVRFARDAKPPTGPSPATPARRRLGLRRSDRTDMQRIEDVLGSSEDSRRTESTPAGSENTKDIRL

Take `Cc1ccc2c(c1)C=Cc1cc(C)ccc1C2c1cn(Cc2ccc(C(=O)Nc3nnn[nH]3)o2)c(=O)[nH]c1=S` [Example 1]: the “antagonism of ATPγS-induced mucin secretion” value in assay [1] was “concentration-dependently antagonize”. In assay [2], the “activity against a panel of 37 other receptors” value is “inactive”.

On to `Cc1ccc2c(c1)C=Cc1cc(C)ccc1C2c1cn(Cc2nc(C(=O)O)cs2)c(=O)[nH]c1=S` [Example 2, 2-((5-(2,8-dimethyl-5H-dibenzo[a,d][7]annulen-5-yl)-2-oxo-4-thioxo-3,4-dihydropyrimidin-1(2H)-yl)methyl)thiazole-4-carboxylic acid], for which, in assay [3], the “pA2 (literature/reported value)” value is “c The literature value is pA2 = 5.7.[8]”. For the same molecule, the Kb in assay [4] (Table 1, shift of UTPγS concentration–response curve by a single antagonist concentration, mean ± SEM, read-out: hP2Y2 pKb (converted)) was 372 nM.

Consider `Cc1ccc2c(c1)C=Cc1cc(C)ccc1C2c1cn(Cc2cc(C(=O)O)cc(C(=O)O)c2)c(=O)[nH]c1=S` [Example 60, 5-((5-(2,8-Dimethyl-5H-dibenzo[a,d][7]annulen-5-yl)-2-oxo-4-thioxo-3,4-dihydropyrimidin-1(2H)-yl)methyl)isophthalic Acid], for which the Ki in assay [5] (read-out: pKi NanoBRET (98) (converted)) was 145 nM. Also, the Kb in assay [4] (setting [7]) is 295 nM. Besides, in assay [4] (quoted in text for nonfluorescent antagonists, mean ± SEM, read-out: hP2Y2R affinity pKd (converted)), the Kd was 295 nM.

With `O=c1[nH]c(=S)c(C2c3ccccc3CCc3ccccc32)cn1[C@@H]1O[C@H](COP(=O)([O-])OP(=O)([O-])C(Cl)(Cl)P(=O)([O-])[O-])[C@@H](O)[C@H]1O.[Na+].[Na+].[Na+].[Na+]` [Example 99, reference compound], the “pA2 (literature/reported value)” value in assay [3] was “d Reported pA2 = 8.0.[8]”. The Kb in assay [4] (setting [7]) is 257 nM.

On to `O=c1ccn([C@@H]2O[C@H](COP(=O)(O)OP(=O)(O)OP(O)(O)=S)[C@@H](O)[C@H]2O)c(=O)[nH]1` [UTPγS, uridine-5′-(γ-thio)-triphosphate, reference compound], for which the “pKi NanoBRET (98)” value in assay [5] is given as 5.46 ± 0.04 (6). Besides, the EC50 in assay [4] (agonist, calcium mobilization, n = 25) is 7.9 nM; in assay [6] it was 91 ± 12 nM.

Broadly, the EC50 is the concentration that produces a half-maximal response.
